Measurements: publication PMC5760531, “Action Potential Recording and Pro-arrhythmia Risk Analysis in Human Ventricular Trabeculae” (Frontiers in Physiology, 2018)

Assays:
[1] = human free (unbound) effective therapeutic plasma concentration used to calculate multiples; cited from earlier work
[2] = system: human ventricular trabeculae; assay: Action potential recording and pro-arrhythmic score analysis in human ventricular trabeculae (hVT);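 further: sharp microelectrode action potential recordings at 37°C in Tyrode-perfused trabeculae, 4 cumulative concentrations each applied 31 min, values averaged over last 30 APs, vehicle 0.1% DMSO as control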
[3] = 1Hz, 1.6-FOLD free ETPC (0.006µM)
[4] = 1Hz, 17-FOLD free ETPC (0.006µM)
[5] = 1Hz, 167-FOLD free ETPC (0.006µM)
[6] = 1Hz, 1667-FOLD free ETPC (0.006µM)
[7] = 2Hz, 1.6-FOLD free ETPC (0.006µM)
[8] = 2Hz, 17-FOLD free ETPC (0.006µM)
[9] = 2Hz, 167-FOLD free ETPC (0.006µM)
[10] = 2Hz, 1667-FOLD free ETPC (0.006µM)

COc1cc2nc(N(C)CCCNC(=O)C3CCCO3)nc(N)c2cc1OC (stereo not shown) [ALFUZOSIN, Alfuzosin]
Free ETPC [1]: 0.006 µM | AMAX [2, 3]: 110 | AMAX percentage change compared to vehicle control [2, 3]: 2% | APD30 [2, 3]: 163 | APD30 percentage change compared to vehicle control [2, 3]: 4% | APD50 [2, 3]: 214 | APD50 percentage change compared to vehicle control [2, 3]: 4% | APD90 [2, 3]: 287 | APD90 percentage change compared to vehicle control [2, 3]: 3% | Alternans [2, 3]: 0.33 | Alternans percentage change compared to vehicle control [2, 3]: -14% | Beat Escape [2, 3]: 0 | Beat Escape percentage change compared to vehicle control [2, 3]: 0% | EADs [2, 3]: 0 | EADs percentage change compared to vehicle control [2, 3]: 0% | ERP [2, 3]: 0.42 | ERP percentage change compared to vehicle control [2, 3]: 0% | Max Dispersion [2, 3]: 2.40 | Max Dispersion percentage change compared to vehicle control [2, 3]: 28% | RMP [2, 3]: -88 | RMP percentage change compared to vehicle control [2, 3]: 3% | Refractoriness Escape [2, 3]: 0 | Refractoriness Escape percentage change compared to vehicle control [2, 3]: 0% | STV [2, 3]: 0.30 | STV percentage change compared to vehicle control [2, 3]: 9% | Triangulation [2, 3]: 123 | Triangulation percentage change compared to vehicle control [2, 3]: -1% | AMAX [2, 4]: 110 | AMAX percentage change compared to vehicle control [2, 4]: 1% | APD30 [2, 4]: 159 | APD30 percentage change compared to vehicle control [2, 4]: 2% | APD50 [2, 4]: 209 | APD50 percentage change compared to vehicle control [2, 4]: 2% | APD90 [2, 4]: 284 | APD90 percentage change compared to vehicle control [2, 4]: 1% | Alternans [2, 4]: 0.34 | Alternans percentage change compared to vehicle control [2, 4]: -13% | Beat Escape [2, 4]: 0 | Beat Escape percentage change compared to vehicle control [2, 4]: 0% | EADs [2, 4]: 0 | EADs percentage change compared to vehicle control [2, 4]: 0% | ERP [2, 4]: 0.44 | ERP percentage change compared to vehicle control [2, 4]: 4% | Max Dispersion [2, 4]: 2.18 | Max Dispersion percentage change compared to vehicle control [2, 4]: 16% | RMP [2, 4]: -88 | RMP percentage change compared to vehicle control [2, 4]: 3% | Refractoriness Escape [2, 4]: 0 | Refractoriness Escape percentage change compared to vehicle control [2, 4]: 0% | STV [2, 4]: 0.26 | STV percentage change compared to vehicle control [2, 4]: -6% | Triangulation [2, 4]: 126 | Triangulation percentage change compared to vehicle control [2, 4]: 1% | AMAX [2, 5]: 110 | AMAX percentage change compared to vehicle control [2, 5]: 2% | APD30 [2, 5]: 161 | APD30 percentage change compared to vehicle control [2, 5]: 3% | APD50 [2, 5]: 213 | APD50 percentage change compared to vehicle control [2, 5]: 4% | APD90 [2, 5]: 291 | APD90 percentage change compared to vehicle control [2, 5]: 4% | Alternans [2, 5]: 0.45 | Alternans percentage change compared to vehicle control [2, 5]: 16% | Beat Escape [2, 5]: 0 | Beat Escape percentage change compared to vehicle control [2, 5]: 0% | EADs [2, 5]: 0 | EADs percentage change compared to vehicle control [2, 5]: 0% | ERP [2, 5]: 0.44 | ERP percentage change compared to vehicle control [2, 5]: 4% | Max Dispersion [2, 5]: 2.43 | Max Dispersion percentage change compared to vehicle control [2, 5]: 29% | RMP [2, 5]: -89 | RMP percentage change compared to vehicle control [2, 5]: 4% | Refractoriness Escape [2, 5]: 0 | Refractoriness Escape percentage change compared to vehicle control [2, 5]: 0% | STV [2, 5]: 0.29 | STV percentage change compared to vehicle control [2, 5]: 7% | Triangulation [2, 5]: 130 | Triangulation percentage change compared to vehicle control [2, 5]: 5% | AMAX [2, 6]: 109 | AMAX percentage change compared to vehicle control [2, 6]: 1% | APD30 [2, 6]: 162 | APD30 percentage change compared to vehicle control [2, 6]: 4% | APD50 [2, 6]: 222 | APD50 percentage change compared to vehicle control [2, 6]: 9% | APD90 [2, 6]: 319 | APD90 percentage change compared to vehicle control [2, 6]: 14% | Alternans [2, 6]: 0.72 | Alternans percentage change compared to vehicle control [2, 6]: 86% | Beat Escape [2, 6]: 0 | Beat Escape percentage change compared to vehicle control [2, 6]: 0% | EADs [2, 6]: 0 | EADs percentage change compared to vehicle control [2, 6]: 0% | ERP [2, 6]: 0.47 | ERP percentage change compared to vehicle control [2, 6]: 12% | Max Dispersion [2, 6]: 3.05 | Max Dispersion percentage change compared to vehicle control [2, 6]: 63% | RMP [2, 6]: -88 | RMP percentage change compared to vehicle control [2, 6]: 4% | Refractoriness Escape [2, 6]: 0 | Refractoriness Escape percentage change compared to vehicle control [2, 6]: 0% | STV [2, 6]: 0.46 | STV percentage change compared to vehicle control [2, 6]: 75% | Triangulation [2, 6]: 158 | Triangulation percentage change compared to vehicle control [2, 6]: 28% | AMAX [2, 7]: 109 | AMAX percentage change compared to vehicle control [2, 7]: 1% | APD30 [2, 7]: 120 | APD30 percentage change compared to vehicle control [2, 7]: 2% | APD50 [2, 7]: 163 | APD50 percentage change compared to vehicle control [2, 7]: 3% | APD90 [2, 7]: 234 | APD90 percentage change compared to vehicle control [2, 7]: 2% | Alternans [2, 7]: 0.92 | Alternans percentage change compared to vehicle control [2, 7]: 6% | Beat Escape [2, 7]: 0 | Beat Escape percentage change compared to vehicle control [2, 7]: 0% | EADs [2, 7]: 0 | EADs percentage change compared to vehicle control [2, 7]: 0% | ERP [2, 7]: 0.45 | ERP percentage change compared to vehicle control [2, 7]: 1% | Max Dispersion [2, 7]: 3.95 | Max Dispersion percentage change compared to vehicle control [2, 7]: 12% | RMP [2, 7]: -87 | RMP percentage change compared to vehicle control [2, 7]: 2% | Refractoriness Escape [2, 7]: 0 | Refractoriness Escape percentage change compared to vehicle control [2, 7]: 0% | STV [2, 7]: 0.64 | Triangulation [2, 7]: 115 | Triangulation percentage change compared to vehicle control [2, 7]: 1% | AMAX [2, 8]: 110 | AMAX percentage change compared to vehicle control [2, 8]: 2% | APD30 [2, 8]: 116 | APD30 percentage change compared to vehicle control [2, 8]: -1% | APD50 [2, 8]: 160 | APD50 percentage change compared to vehicle control [2, 8]: 1% | APD90 [2, 8]: 233 | APD90 percentage change compared to vehicle control [2, 8]: 1% | Alternans [2, 8]: 0.99 | Alternans percentage change compared to vehicle control [2, 8]: 14% | Beat Escape [2, 8]: 0 | Beat Escape percentage change compared to vehicle control [2, 8]: 0% | EADs [2, 8]: 0 | EADs percentage change compared to vehicle control [2, 8]: 0% | ERP [2, 8]: 0.47 | ERP percentage change compared to vehicle control [2, 8]: 4% | Max Dispersion [2, 8]: 3.93 | Max Dispersion percentage change compared to vehicle control [2, 8]: 11% | RMP [2, 8]: -88 | RMP percentage change compared to vehicle control [2, 8]: 4% | Refractoriness Escape [2, 8]: 0 | Refractoriness Escape percentage change compared to vehicle control [2, 8]: 0% | STV [2, 8]: 0.66 | Triangulation [2, 8]: 118 | Triangulation percentage change compared to vehicle control [2, 8]: 3% | AMAX [2, 9]: 110 | AMAX percentage change compared to vehicle control [2, 9]: 2% | APD30 [2, 9]: 115 | APD30 percentage change compared to vehicle control [2, 9]: -1% | APD50 [2, 9]: 161 | APD50 percentage change compared to vehicle control [2, 9]: 2% | APD90 [2, 9]: 238 | APD90 percentage change compared to vehicle control [2, 9]: 3% | Alternans [2, 9]: 0.83 | Alternans percentage change compared to vehicle control [2, 9]: -4% | Beat Escape [2, 9]: 0 | Beat Escape percentage change compared to vehicle control [2, 9]: 0% | EADs [2, 9]: 0 | EADs percentage change compared to vehicle control [2, 9]: 0% | ERP [2, 9]: 0.48 | ERP percentage change compared to vehicle control [2, 9]: 7% | Max Dispersion [2, 9]: 2.88 | Max Dispersion percentage change compared to vehicle control [2, 9]: -18% | RMP [2, 9]: -88 | RMP percentage change compared to vehicle control [2, 9]: 3% | Refractoriness Escape [2, 9]: 0 | Refractoriness Escape percentage change compared to vehicle control [2, 9]: 0% | STV [2, 9]: 0.63 | Triangulation [2, 9]: 123 | Triangulation percentage change compared to vehicle control [2, 9]: 8% | AMAX [2, 10]: 108 | AMAX percentage change compared to vehicle control [2, 10]: 0% | APD30 [2, 10]: 115 | APD30 percentage change compared to vehicle control [2, 10]: -1% | APD50 [2, 10]: 165 | APD50 percentage change compared to vehicle control [2, 10]: 5% | APD90 [2, 10]: 258 | APD90 percentage change compared to vehicle control [2, 10]: 12% | Alternans [2, 10]: 0.78 | Alternans percentage change compared to vehicle control [2, 10]: -10% | Beat Escape [2, 10]: 0 | Beat Escape percentage change compared to vehicle control [2, 10]: 0% | EADs [2, 10]: 0 | EADs percentage change compared to vehicle control [2, 10]: 0% | ERP [2, 10]: 0.50 | ERP percentage change compared to vehicle control [2, 10]: 11% | Max Dispersion [2, 10]: 2.72 | Max Dispersion percentage change compared to vehicle control [2, 10]: -23% | RMP [2, 10]: -87 | RMP percentage change compared to vehicle control [2, 10]: 2% | Refractoriness Escape [2, 10]: 0 | Refractoriness Escape percentage change compared to vehicle control [2, 10]: 0% | STV [2, 10]: 0.55 | Triangulation [2, 10]: 142 | Triangulation percentage change compared to vehicle control [2, 10]: 26%
